Reference: patent publication US12043602B2, “Fendiline derivatives” (The Board of Regents of the University of Texas System, priority 2019, dated 2024)
Entries after “also recorded” stand apart in the source; their conditions may differ. Like-named read-outs stand apart in the source and are kept apart here.

Key:
[1] = tested on: MPanc96 (Mut) pancreatic tumor cells; test: CyQUANT proliferation assay; type: cell-based
Description: (§1) Madine Darby Canine Kidney epithelial cells (MDCK) stably co-expressing mGFP-tagged full length oncogenic mutant K-Ras (GFP—K-RASG12V) or mGFP-LactC2 (peptide probe for phosphatidylserine) and mCherry-tagged to the amino acids 179-189 of H-RasC181S, C184S (mCherry-CAAX, localizes primarily to endomembranes) were grown in DMEM-high glucose/sodium pyruvate/10% FBS. The medium was supplemented with 1× Penicillin/Streptomycin for fluorescence microscopy assays, to avoid any microbial contamination from the test compounds added. KLE and Hec50 cells were maintained in DMEM-F-12 medium supplemented with 10% FBS. Hec-1A and Hec-1B cells were grown in McCoy's 5a medium supplemented with 10% FBS. ESS-1 cells were grown in RPMI 1640 medium supplemented with 20% FBS. MPanc96 cells were grown in DMEM supplemented with 10% FBS, MiaPaCa-2 cells in DMEM supplemented with 10% FBS and 2.5% horse serum and all other cell lines were grown in RPMI 1640 supplemented with 10% FBS. All cancer cell media were supplemented with ×Penicillin/Streptomycin. All cell lines were grown at 37° C. with 5% CO2.
(§2) Cells were seeded in 96-well plates. After 24 h, fresh growth medium supplemented with 0.1% vehicle (DMSO), or various concentrations of drugs was added and cells were grown for 72 h. Cell numbers were quantified using the CyQUANT® Cell Proliferation Assay Kit (Molecular Probes, Life Technologies), according to the manufacturer's protocol. Fluorescence measurement was used as a measure of live cell number.

[2] = tested on: NCI H1975 (WT) lung tumor cells; test: CyQUANT proliferation assay; type: cell-based; parameters: key to IC50 proliferation NCI H1975 (WT): NE—Not efficacious; settings: for IC50 proliferation NCI H1975 (WT): 72 h; for IC50: Homo sapiens, NCI-H1975, Table 11, lung
Description: as §1, §2

[3] = tested on: ESS-1 (WT) endometrial tumor cells; test: CyQUANT proliferation assay; type: cell-based; parameters: key: NE—Not efficacious; settings: 72 h
Description: as §1, §2

[4] = tested on: KLE (WT) endometrial tumor cells; test: CyQUANT proliferation assay; type: cell-based; parameters: key: NE—Not efficacious; settings: 72 h
Description: as §1, §2

MiaPaCa-2 tumors = test: In vivo tumor growth assay (xenograft); parameters: species or system nu/nu mice; settings: for growth of MiaPaCa-2 xenografts: intraperitoneally, once daily 5 days on / 2 days off, doses 1-12.5 mg/kg; for minimum effective dose on tumor growth relative to fendiline: MiaPaCa2 xenografts in nude mice
Description: In Vivo Tumor Growth Assay. All animal studies were performed under an Institutional Animal Care and Use Committee (IACUC) approved animal protocol (AWC-15-0101), in accordance with the National Institutes of Health Guide for the Care and Use of Laboratory Animals. Early passage MiaPaCa-2 cells were harvested, and 2×10^6 cells were implanted into the right flanks of female nu/nu mice. The animals were randomized into control and treated groups (10 mice per group). Tumor volume (V) was measured with an external caliper every 3-4 days and it was calculated as V=0.52 (length×width2). Compound treatment was initiated when the tumor sizes reached 100 mm3. Compounds (12.5 mg/kg) were injected daily intraperitoneally for 5 days, with 2 days of no treatment in between. All treatments were continued until any of the subcutaneous tumors reached 1500 mm3 in volume, when all the animals were sacrificed, and the tumors removed.
Early passage BxPC-3 or MIAPaCa-2 cells were harvested, and 2-3X106 cells were implanted into the right flanks of nu/nu mice. The animals were randomized into control and treated groups (10 mice per group). Tumor volume (V) was measured with an external caliper every 3-4 days and it was calculated as V=0.52 (length×width2). Drug treatment was initiated 4 days after tumor implantation. Drugs were injected daily intraperitoneally (at doses indicated) for 5 days, with 2 days of no treatment in between. All treatments were continued until any of the subcutaneous tumors reached 1500 mm3 in volume or for 6 weeks (whichever was first), when all the animals were sacrificed and the tumors removed.
Next the effect of the selected PMLIs on the growth of oncogenic KRAS expressing MiaPaCa-2 cells implanted subcutaneously into the flanks of nu/nu immunosuppressed mice was determined. […] The animals were randomized into control and PMLI-treated groups (10 mice per group). Treatment was initiated when the tumors reached a mean volume of 100 mm^3. PMLIs were tested at 12.5, 7.5, 5, 2.5 and 1 mg/kg doses, administered once daily intraperitoneally for 5 days, with 2 days of no treatment in between for the duration of the experiment. […] There was no observed toxicity detected in any of the compound-treated groups during the experiment and, accordingly, there was no significant difference in the body weight of the animals in the different groups.

pERK = test: Immunohistochemistry of tumor sections, pERK; parameters: species or system nu/nu mice; settings: mouse, in vivo
Description: Immunohistochemistry. 4-5 μm sections were deparaffinized, rehydrated, and treated with 10 mM sodium citrate for heat induced antigen retrieval. After quenching endogenous peroxidase, and blocking with 2.5% normal goat serum (Vector Laboratories S-1012), sections were incubated overnight at 4° C. with primary antibody diluted in blocking solution as recommended by manufacturer (Cell Signaling). Controls were incubated with diluted normal rabbit IgG. After incubation with biotinylated secondary antibody diluted 1:250 in blocking serum for 45 min at rt, sections were incubated with VECTASTAIN ABC reagent for 30 min, and for development of the DAB chromogen the Quanto substrate was used. Slides were counter stained with Hematoxylin. Five fields per stained section per xenograft were photographed at 10X. CC3+ and pERK+ area and number of events per field were quantitated via automated image analysis (NIS Elements BR analysis ver. 4.13.04). Vessel number and lumen area per field used the same software with manual settings to trace vessel wall contours. Antibodies used are as follows: CC3: Cell Signaling #9661, use at 1:300. (Cleaved Caspase-3 (Asp175) Antibody. Rabbit polyclonal. pERK: Cell Signaling #4370: Phospho-p44/42 MAPK (Erk1/2) (Thr202/Tyr204) (D13.14.4E) XP Rabbit mAB. CD31 (PECAM-1) (D8V9E) XP Rabbit mAB (Cell signal # (Cell signal #77699). Normal rabbit IgG: Santa Cruz #sc-3888. Concentration is 50 μg/mL or 50 ng/μL. Prepared with 5 μg in 200 μL blocking solution. Goat Anti-Rabbit IgG Biotin Conjugate: Calbiochem #OS03B, Concentration=1.2 mg/mL. Recommended to be used for IHC at 1 μg/mL.

[5] = tested on: HPAC (Mut) pancreatic tumor cells; test: CyQUANT proliferation assay; type: cell-based; settings: Homo sapiens, HPAC, 72 h
Description: as §1, §2

[6] = tested on: MDCK cells co-expressing GFP-K-RASG12V and mCherry-CAAX; test: Cytotoxicity in mislocalization screen (death of all cells in well); settings: drug caused death of all cells in well at 30 μM
[7] = MPANC96, 72 h, read-out: IC50 proliferation MPanc96 (Mut)
[8] = MPANC96, Table 11, pancreatic, read-out: IC50 (μM) MPanc96 (Mut)

Row | Compound | IC50 [1, 7] | IC50 [1, 8] | IC50 proliferation NCI H1975 (WT) [2] | IC50 [2] | IC50 proliferation ESS-1 (WT) [3] | IC50 proliferation KLE (WT) [4] | MiaPaCa2 xenograft size (MiaPaCa-2 tumors; 12.5 mg/kg intraperitoneally, days 28, 32 and 35) | growth of MiaPaCa-2 xenografts (MiaPaCa-2 tumors) | pERK levels in tumors (pERK) | IC50 [5] | minimum effective dose on tumor growth relative to fendiline (MiaPaCa-2 tumors) | Cytotoxic at 30 μM [6] | tumor growth at 1 mg/kg (MiaPaCa-2 tumors; 1 mg/kg intraperitoneally) | growth of MiaPaCa-2 xenografts (MiaPaCa-2 tumors; listed as 12h) | growth of MiaPaCa-2 xenografts (MiaPaCa-2 tumors; listed as 22)
1 | CC(NCCC(c1ccccc1)c1ccccc1)c1ccccc1 (stereo not drawn) [Fendiline] | 10.8 µM | 10.8 µM | NE | > 30 µM | NE | NE | significantly smaller | inhibits the growth | no significant effect |  |  |  |  |  | 
2 | COc1ccc([C@@H](C)N(CC=C(c2ccccc2)c2ccccc2)CCN2CCN(C)CC2)cc1 [NY0244, (R)-N-(1-(4-methoxyphenyl)ethyl)-N-(2-(4-methylpiperazin-1-yl)ethyl)-3,3-diphenylprop-2-en-1-amine] | 4.22 µM | 4.2 µM | NE | > 30 µM | NE | NE |  |  |  | 5.55 µM | more potent than fendiline | Yes |  |  | 
3 | COc1ccc([C@@H](C)N(CC=C(c2ccccc2)c2ccccc2)CCN2CCCC2)cc1 [NY0331, (R)-N-(1-(4-methoxyphenyl)ethyl)-3,3-diphenyl-N-(2-(pyrrolidin-1-yl)ethyl)prop-2-en-1-amine] | 3.81 µM | 3.8 µM |  |  |  |  |  |  | reduced | 5.15 µM | more potent than fendiline | Yes | significantly inhibited tumor growth | suppressed; also recorded: strikingly decreased the rate of growth | 
4 | COc1ccc([C@@H](C)N(CC=C(c2ccccc2)c2ccccc2)CCCN2CCN(C)CC2)cc1 [NY0335, (R)-N-(1-(4-methoxyphenyl)ethyl)-N-(3-(4-methylpiperazin-1-yl)propyl)-3,3-diphenylprop-2-en-1-amine] | 4.18 µM | 4.2 µM | NE | > 30 µM | NE | NE |  |  | reduced | 5.81 µM |  | Yes |  |  | suppressed; also recorded: strikingly decreased the rate of growth
